The results in this text go back to article PMC5207038 (ACS chemical biology, 2016).

“Also recorded” adds a separate entry of the source.

For one experiment, the target named is hA2AAR (Homo sapiens, UniProt P29274). Description: Radioligand binding at human A2AAR, membranes of HEK293 cells. As to conditions: for % inhibition at 30 µM A2AAR: radioligand displacement at 30 µM, bases; for inhibition at 30 µM: read-out: % inhibition at 30 µM A2AAR; for inhibition at 10 µM: read-out: % inhibition at 10 µM A2AAR. Background: Loss of bound radioactivity is the signal in a displacement assay; it reports binding, not function.
hA2AAR, sequence (P29274 whole entry): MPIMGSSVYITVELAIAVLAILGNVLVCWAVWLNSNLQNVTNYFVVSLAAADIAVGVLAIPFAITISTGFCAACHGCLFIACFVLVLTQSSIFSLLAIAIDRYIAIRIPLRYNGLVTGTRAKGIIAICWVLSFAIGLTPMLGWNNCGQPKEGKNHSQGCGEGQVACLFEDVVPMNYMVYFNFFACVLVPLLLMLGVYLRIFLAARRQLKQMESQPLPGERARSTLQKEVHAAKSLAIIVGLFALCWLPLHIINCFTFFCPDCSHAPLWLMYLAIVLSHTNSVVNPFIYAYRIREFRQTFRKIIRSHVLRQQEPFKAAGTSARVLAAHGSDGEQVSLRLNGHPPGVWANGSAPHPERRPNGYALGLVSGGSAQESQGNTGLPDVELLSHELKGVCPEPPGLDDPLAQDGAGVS

For another experiment, the target named is T1, hA3AR (Homo sapiens, UniProt P0DMS8).
T1 sequence (P0DMS8 1-318): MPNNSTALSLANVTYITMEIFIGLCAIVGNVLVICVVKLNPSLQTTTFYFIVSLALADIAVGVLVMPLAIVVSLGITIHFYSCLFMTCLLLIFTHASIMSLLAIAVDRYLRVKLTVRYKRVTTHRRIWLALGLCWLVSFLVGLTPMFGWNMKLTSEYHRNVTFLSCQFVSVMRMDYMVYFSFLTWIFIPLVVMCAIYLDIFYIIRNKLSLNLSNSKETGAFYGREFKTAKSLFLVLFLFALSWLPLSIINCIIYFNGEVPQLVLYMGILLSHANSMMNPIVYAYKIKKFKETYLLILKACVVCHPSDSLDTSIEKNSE
The experiment can be described thus: Radioligand binding at human A3AR, membranes of CHO cells. The conditions noted are these: for % inhibition at 30 µM A3AR: radioligand displacement at 30 µM, bases; for inhibition at 30 µM: read-out: % inhibition at 30 µM A3AR.

In another experiment the target is T2, hA1AR (Homo sapiens, UniProt P30542).
T2 sequence (P30542 1-326): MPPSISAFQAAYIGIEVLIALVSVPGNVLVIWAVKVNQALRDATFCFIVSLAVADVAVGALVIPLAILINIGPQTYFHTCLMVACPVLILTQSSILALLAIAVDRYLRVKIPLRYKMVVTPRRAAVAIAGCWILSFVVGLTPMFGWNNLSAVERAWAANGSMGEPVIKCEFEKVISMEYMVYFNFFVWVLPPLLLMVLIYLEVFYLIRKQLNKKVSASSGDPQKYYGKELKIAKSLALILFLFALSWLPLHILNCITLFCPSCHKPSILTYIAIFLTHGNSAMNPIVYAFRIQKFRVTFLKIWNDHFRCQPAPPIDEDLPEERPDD
The experiment can be described thus: Radioligand binding at human A1AR, membranes of CHO cells. The conditions noted are these: for % inhibition at 30 µM A1AR: radioligand displacement at 30 µM, bases; for inhibition at 30 µM: read-out: % inhibition at 30 µM A1AR; for inhibition at 10 µM: read-out: % inhibition at 10 µM A1AR.

The target of another experiment is T3, A2BAR (Homo sapiens, UniProt P29275).
T3 sequence (P29275 1-332): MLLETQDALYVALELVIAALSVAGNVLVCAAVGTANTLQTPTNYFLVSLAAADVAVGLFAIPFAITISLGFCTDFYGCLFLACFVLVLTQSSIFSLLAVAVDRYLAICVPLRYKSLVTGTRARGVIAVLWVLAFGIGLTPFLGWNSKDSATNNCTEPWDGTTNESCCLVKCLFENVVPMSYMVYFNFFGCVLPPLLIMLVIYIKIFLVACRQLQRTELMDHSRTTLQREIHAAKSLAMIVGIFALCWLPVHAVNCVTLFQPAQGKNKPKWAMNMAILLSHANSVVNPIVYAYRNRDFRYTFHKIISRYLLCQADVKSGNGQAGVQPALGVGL
The experiment can be described thus: Functional assay for the A2BAR in CHO cells. It counts as cell-based. As to conditions: for functional activity at A2BAR: inactive refers to 10 µM.

The target of the next experiment is T4, A1AR (Homo sapiens, UniProt P30542).
T4 sequence (P30542 1-326): T2 sequence (P30542 1-326)
As to conditions: cAMP assay. On the technique in general: Changes in cAMP serve as a functional read-out for many G protein-coupled receptors.

In a further experiment the target is T5, A3AR (Homo sapiens, UniProt P0DMS8).
T5 sequence (P0DMS8 1-318): T1 sequence (P0DMS8 1-318)

The inhibition is the change of the read-out against control, counted positive when it falls. In general, EC50 refers to the concentration needed to bring the measured effect to its halfway point. A low value points to an effect from little substance.

Take `Nc1ncnc2[nH]cnc12` [Compound 26, adenine]: on hA2AAR, the “% inhibition at 30 µM A2AAR” value is reported as “No significant displacement” and the inhibition at 30 µM turned out to be 19 ± 8%. At hA3AR, the “% inhibition at 30 µM A3AR” value is “No significant displacement”. Also, at hA1AR, the “% inhibition at 30 µM A1AR” value was “No significant displacement” and the inhibition at 30 µM worked out at 19 ± 8%.

For the compound `Cn1c(=O)[nH]c2nc[nH]c2c1=O` [Compound 28, 1-methylxanthine], the inhibition at 30 µM at hA2AAR came out at 40 ± 8%; on hA3AR, 36 ± 6%.

For the compound `Nc1nc(=O)[nH]c2c1ncn2[C@@H]1O[C@H](CO)[C@@H](O)[C@H]1O` [Compound 9, isoguanosine], on A2BAR, the midpoint of the response, the EC50, lay at 3100 nM and the “functional activity at A2BAR” value is “full agonists”.

For the compound `Nc1nccc2c1ncn2[C@@H]1O[C@H](CO)[C@@H](O)[C@H]1O` [Compound 6, 3-deazaadenosine], the “functional activity at A2BAR” value on A2BAR was “inactive”. Moreover, the “functional activity at A1AR” value at A1AR was “no influence on cAMP levels was detected; also recorded: lost the ability to activate the receptor”.

Regarding `Cc1cn([C@@H]2O[C@H](CO)[C@@H](O)[C@H]2O)c(=O)nc1N` [Compound 13, 5-methylcytidine], the results for the inhibition at 10 µM at hA2AAR and at hA1AR were 13 ± 9% and 10 ± 3%, respectively.

Take `Nc1cccc2c1ncn2[C@@H]1O[C@H](CO)[C@@H](O)[C@H]1O` [Compound 7, 1,3-dideazaadenosine]: the “% inhibition at 10 µM A2AAR” value on hA2AAR (radioligand displacement at 10 µM, mean ± standard error, three experiments) is given as “completely lost affinity”. Further, the inhibition at 10 µM was 5 ± 2% at hA2AAR and 15 ± 2% at hA1AR. In addition, the “functional activity at A3AR” value on A3AR (cAMP assay, 10 µM for compound 11) was “strongly selective agonist”.

On to `Nc1ccnc2c1ncn2[C@@H]1O[C@H](CO)[C@@H](O)[C@H]1O` [Compound 5, 1-deazaadenosine], for which, on A2BAR, the EC50 was 1500 nM and the “functional activity at A2BAR” value is on record as “full agonists”.

With `Nc1ncn([C@@H]2O[C@H](CO)[C@@H](O)[C@H]2O)c(=O)n1` [Compound 12, 5-azacytidine], on hA2AAR, the inhibition at 10 µM was determined as 34 ± 2%. Further, the Emax at A3AR (CHO, read-out: maximal efficacy A3AR) is roughly 30%.

As to `Nc1nc[nH]c(=O)c1Cl` [Compound 29, 6-amino-5-chloropyrimidin-4(3H)-one], the “% inhibition at 30 µM A2AAR” value at hA2AAR is recorded as “No significant displacement”. On hA3AR, the “% inhibition at 30 µM A3AR” value is “No significant displacement” and the inhibition at 30 µM came out at 19 ± 5%. Besides, on hA1AR, the “% inhibition at 30 µM A1AR” value was “No significant displacement” and the inhibition at 30 µM was found to be 11 ± 3%.
